Laboratory results from patent US20240423988A1, “Improvement of Tumor Immunogenicity by Means of Splicing-Controlling Compound” (Kyoto University, priority 2021, published 2024).

Experiments:
MC38 cells = assay: IFN-γ signaling and expression of MHC class I components and PD-L1 in MC38 cells; assay type: cell-based, murine; settings: for decrease in PD-L1 expression on the cell surface / increase in H2-K^b expression: 72 hours
Source text: MHC class I expressed in cancer cells is critical for neoantigen presentation, which is indispensable for CD8^+ T cell-dependent immune surveillance and tumor killing. To investigate whether Compound 1 modulates the neoantigen presentation pathway, first, the effects of Compound 1 on IFN-γ signaling and the expression of MHC class I components, including […] (B2M) and H2-K^b in MC38 cells, were examined because CD8^+ T cell-secreted IFN-γ is a major inducer of MHC class I components. […] In contrast, any changes in the expression of PD-L1 were not detected in host dendritic cells or macrophages. […] However, these alterations were likely not the functional mechanisms through which Compound 1 exerts its antitumor effects (FIGS. 1-2O and 1-2P), as enhanced antitumor effects of Compound 1 were observed when co-administered with αPD-L1.

MC38 tumors = assay: MC38 tumor-bearing model; assay type: in vivo
Protocol: [FIG. 1-1] FIG. 1. Chemical activation of SRSFs exerts antitumor effects in a CD8^+ T cell-dependent manner and potentiates the response to PD-1 blockade. A: Experimental procedure involving an MC38 tumor-bearing model. B and C: Tumor volumes (B) and survival (C) are shown (n=12/group). ** represents p<0.01; and *** represents p<0.001. D and E: MC38 cells were treated with Compound 1 for 72 hours (D) or for the indicated time (E). Cell proliferation and cell death were measured using CCK-8 and LDH assays, respectively (n=3/group). F and G: Representative images (F) and quantitative data (G) of flow cytometry are shown (n=[…]/group). * represents p<0.05. H: Experimental procedure of antibody injection in an MC38 tumor-bearing model.
[FIG. 1-2] Continuation of FIG. 1. I to L; Representative images (I and K) and quantitative data (J and L) of flow cytometry are shown (n=7/group for spleen (J); n=10/group for tumor (L)). *** represents p<0.001. M and N: Tumor growth curves (M) and tumor volumes on day 23 (N) are shown (n=10/group). * represents p<0.05. “ns” represents “not significant”. O and P: Tumor volumes of mice (n=12/group) are shown collectively (O) or individually (P). ** represents p<0.01, and *** represents p<0.001, vs. isotype IgG+vehicle. # represents p<0.05, and […] represents p<0.001, between the indicated groups. Q: Changes in body weight of mice (n=5/group). In FIG. 1, all data are shown as the mean±SEM. All experiments were performed at least twice. Statistical significance was determined using unpaired Student's t-test for (G), (J), (L), and (N), and one-way ANOVA followed by Bonferroni's multiple comparisons test for (B) and (O).
First, in vivo activity was assessed using syngeneic MC38 tumors intradermally transplanted into […] mice (FIG. 1-1A).
Based on these observations, whether the Compound 1 induced antitumor effects were due to enhanced cancer immunity was then examined. Endogenous CD8^+ T cells were depleted using CD8-depleting antibody (αCD8), and the antitumor effects of Compound 1 administration were evaluated (FIG. 1-1H).

[1] = syngeneic MC38 tumors intradermally transplanted

## Clc1nc(NCc2ccco2)c2[nH]cnc2n1 [Compound 1]
MC38 cells
  phosphorylation of STAT1 and STAT3 and expression of B2M protein: no such effects
MC38 cells; IFN-γ 0 ng/ml
  decrease in PD-L1 expression on the cell surface: 3.8%
  increase in H2-K^b expression: 11.1%
MC38 cells; IFN-γ 0.1 ng/ml
  decrease in PD-L1 expression on the cell surface: 3.2%
  increase in H2-K^b expression: 12.4%
MC38 cells; IFN-γ 1 ng/ml
  decrease in PD-L1 expression on the cell surface: 26.1%
MC38 tumors; CD8-depleting antibody (αCD8)
  tumor suppression when CD8^+ T cells were depleted: not effective
MC38 tumors; day 23, vs. isotype IgG+vehicle
  suppressed tumor growth: 28.5%
MC38 tumors; extracted tumors, flow cytometry
  frequency of tumor-infiltrating CD8+ T cells: about 1.5 fold
MC38 tumors; host dendritic cells or macrophages
  changes in the expression of PD-L1: not detected
MC38 tumors; mouse, in vivo
  body weight or apparent adverse effects: no change in body weight or apparent adverse effects
MC38 tumors; [1]
  in vivo tumor growth: tumor growth suppression
  survival: prolonged survival
